Consider one molecule from PMC8524858, “Dual inhibition of αvβ6 and αvβ1 reduces fibrogenesis in lung tissue explants from patients with IPF” (Respiratory Research, 2021).

The target in one assay is T1, human integrin αvβ6 (Homo sapiens, UniProt P06756+P18564).
T1 construct: purchased ACROBiosystems or R&D Systems IT6-H52E1 or 3817-AV
Briefly: Integrin ligand-binding assay, αvβ6 (LAP ligand). Here is the method:
(§1) Integrin ligand-binding assays were performed similar to that previously described.
(§2) Microplates were coated with recombinant human integrins dissolved in PBS (2 µg/ml, overnight at room temperature). Following removal of the coating solution, plates were washed with PBS. Plates were blocked with 200 µL/well of blocking buffer (2% bovine serum albumin [BSA] in PBS) at 37 °C for 1 h. […] Plates were incubated for 2 h at 25 °C, washed, and incubated for 1 h with biotin-labeled anti-fibronectin or anti-LAP antibodies (for αvβ1 or αvβ6/αvβ8, respectively).

The target in a further assay is T2, human integrin αvβ1 (Homo sapiens, UniProt P05556+P06756).
T2 construct: purchased ACROBiosystems or R&D Systems IT1-H52E1 or 6579-AVB
T2 sequence (P06756 31-992 limits assumed): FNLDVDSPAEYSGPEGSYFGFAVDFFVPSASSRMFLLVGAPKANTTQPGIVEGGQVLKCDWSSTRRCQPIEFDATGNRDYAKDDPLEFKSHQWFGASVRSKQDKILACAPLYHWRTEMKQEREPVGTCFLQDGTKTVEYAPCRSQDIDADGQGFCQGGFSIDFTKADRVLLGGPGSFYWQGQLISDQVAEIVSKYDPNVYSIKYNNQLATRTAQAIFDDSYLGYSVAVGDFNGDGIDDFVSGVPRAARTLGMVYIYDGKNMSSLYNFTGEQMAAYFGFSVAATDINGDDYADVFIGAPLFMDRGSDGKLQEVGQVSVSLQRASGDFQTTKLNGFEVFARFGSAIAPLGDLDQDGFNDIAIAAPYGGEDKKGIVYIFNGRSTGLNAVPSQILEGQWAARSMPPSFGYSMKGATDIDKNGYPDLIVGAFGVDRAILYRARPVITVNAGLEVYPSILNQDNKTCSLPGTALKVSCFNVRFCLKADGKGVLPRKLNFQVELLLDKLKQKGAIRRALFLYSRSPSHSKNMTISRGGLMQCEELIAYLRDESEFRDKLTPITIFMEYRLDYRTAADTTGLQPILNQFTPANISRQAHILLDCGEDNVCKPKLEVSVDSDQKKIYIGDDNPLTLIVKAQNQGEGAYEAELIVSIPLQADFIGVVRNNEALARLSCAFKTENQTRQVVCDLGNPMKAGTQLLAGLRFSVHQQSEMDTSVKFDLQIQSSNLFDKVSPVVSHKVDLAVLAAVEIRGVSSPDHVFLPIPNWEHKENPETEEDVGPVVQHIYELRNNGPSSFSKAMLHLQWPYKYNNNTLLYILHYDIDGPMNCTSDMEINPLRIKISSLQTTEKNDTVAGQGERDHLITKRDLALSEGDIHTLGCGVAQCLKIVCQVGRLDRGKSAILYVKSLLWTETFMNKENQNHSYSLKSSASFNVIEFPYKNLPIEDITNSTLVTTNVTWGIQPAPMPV
T2 sequence (P05556 21-728 limits assumed): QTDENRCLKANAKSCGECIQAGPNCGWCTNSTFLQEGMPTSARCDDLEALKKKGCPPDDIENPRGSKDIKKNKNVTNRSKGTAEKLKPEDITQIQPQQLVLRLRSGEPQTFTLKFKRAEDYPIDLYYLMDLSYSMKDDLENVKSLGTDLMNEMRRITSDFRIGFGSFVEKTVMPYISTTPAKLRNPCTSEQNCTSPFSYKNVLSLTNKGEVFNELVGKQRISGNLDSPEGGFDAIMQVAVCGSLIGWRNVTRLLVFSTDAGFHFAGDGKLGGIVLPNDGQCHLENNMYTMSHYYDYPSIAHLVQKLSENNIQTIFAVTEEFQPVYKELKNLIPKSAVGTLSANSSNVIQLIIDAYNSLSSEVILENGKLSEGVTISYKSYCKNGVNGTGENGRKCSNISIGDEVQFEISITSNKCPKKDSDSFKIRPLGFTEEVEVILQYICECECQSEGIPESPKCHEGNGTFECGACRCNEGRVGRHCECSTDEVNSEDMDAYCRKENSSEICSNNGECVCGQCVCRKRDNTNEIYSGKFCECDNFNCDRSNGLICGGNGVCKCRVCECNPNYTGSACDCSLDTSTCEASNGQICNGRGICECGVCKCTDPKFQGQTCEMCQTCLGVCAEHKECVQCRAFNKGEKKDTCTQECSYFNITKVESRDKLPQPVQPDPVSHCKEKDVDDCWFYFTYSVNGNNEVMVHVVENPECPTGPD
Briefly: Integrin ligand-binding assay, αvβ1 (fibronectin ligand). Here is the method: as §1, §2

Another assay has as its target T3, human integrin αvβ3 (Homo sapiens, UniProt P05106+P06756).
T3 construct: purchased R&D Systems 3050-AV
Briefly: Integrin ligand-binding assay, αvβ3 (vitronectin ligand). Here is the method:
as §1, §2

Assay [1] concerns normal human lung fibroblast adhesion to LAP. As to the kind of experiment: Primary cell LAP adhesion assay (cell impedance), normal HLF. Particulars: HLFs isolated from normal lung tissue, read-out: IC50 for blocking adhesion to LAP. It counts as cell-based. The method, then: (§3) Adhesion of primary human lung cells to LAP was quantified using the xCELLigence RTCA MP instrument (ACEA Biosciences; San Diego, CA, USA) via cell impedance measurements similar to that previously described.
(§4) Adhesion assays were performed using the xCELLigence RTCA MP instrument (ACEA Biosciences; San Diego, CA, USA) on 96-well PET plates (ACEA Biosciences; 300600910) via a cell impedance measurement similar to one previously described (E6). Plates were coated with LAP (Sino Biological; 10804-H08H1) overnight at 4 °C and blocked with BSA for 2 h at 37 °C. NHLF (40,000 cells/well), dHLF (40,000 cells/well), or NHBE (20,000 cells per well) in FBS-free media were combined with small-molecule integrin inhibitors or antibodies in the plates and incubated at 37 °C with 5% CO2. […] Anti-αv antibody, 17E6, and anti-β1 antibody, P5D2, were tested at a single concentration (10 μg/ml). Cell impedance (cell index) was measured at baseline and every 3 min for up to 24 h using xCELLigence RTCA 2.1.0 Software (ACEA Biosciences). […] Geometric mean IC50 was calculated for each compound following repeat analyses of multiple donor cells.

Assay [2] deals with Smad2 phosphorylation (canonical TGF-β signaling) in IPF PCLSs. As to the kind of experiment: Smad2 phosphorylation in PCLSs from IPF explant tissue. It counts as cell-based, human. Particulars: 7 days; n = 3 individual patients (Fig. S1B). The method, then: Integrin αvβ1 protein levels and Smad phosphorylation levels in tissues or cells were quantified by the Meso Scale Discovery custom electrochemiluminescence assay.
Biotin-labeled antibodies for total Smad2/3, phosphorylated Smad2 (pSmad2), and total Smad2 (Cell Signaling Technology; Danvers, MA, USA), and antibodies for phosphorylated Smad3 (pSmad3) and total Smad3 (Abcam; Cambridge, UK) were utilized for pSmad electrochemiluminescence assays.
pSmad2 and total Smad2 quantitation were performed similarly to that described for pSmad3 and total Smad3 above, with the exception that U-PLEX linker conjugated biotinylated anti-pSmad2 and total Smad2 antibodies were bound to U-PLEX MSD assay plates (MSD; K15227N-2) according to manufacturer’s instruction, followed by unknown sample incubation and addition of sulfo-tag-labeled anti-Smad2/3 antibody.
Human PCLSs were generated from lung tissue explants from patients with IPF undergoing transplant surgery and cultured based on previously reported methods (E7-E12). Slices of tissue (400 µm) were cut using a Compresstome VF-300-0Z (Precisionary Instruments; Natick, MA, USA).

The subject of assay [3] is normal human bronchial epithelial cell adhesion to LAP (αvβ6 integrin-mediated). As to the kind of experiment: Primary cell LAP adhesion assay (cell impedance), NHBE. It counts as cell-based. The note with it: normal human bronchial epithelial cells, read-out: IC50 for inhibition of adhesion to LAP. Here is the method: as §3, §4
Another assay concerns the target T4, human integrin αvβ5 (Homo sapiens, UniProt P06756+P18084).
T4 construct: purchased R&D Systems 2528-AV
Briefly: Integrin ligand-binding assay, αvβ5 (vitronectin ligand). The method, then:
as §1, §2

For assay [4], the system named is IPF lung fibroblast adhesion to LAP. As to the kind of experiment: Primary cell LAP adhesion assay (cell impedance), IPF HLF. It counts as cell-based. The note with it: Homo sapiens, HLFs isolated from fibrotic (IPF) lung tissue, read-out: IC50 for blocking adhesion to LAP. The method, then:
as §3, §4

What is called IC50 is the concentration that gives 50% inhibition.

T4 sequence (P06756 31-992 limits assumed): as the sequence (P06756 31-992 limits assumed) above
T4 sequence (P18084 24-719 limits assumed): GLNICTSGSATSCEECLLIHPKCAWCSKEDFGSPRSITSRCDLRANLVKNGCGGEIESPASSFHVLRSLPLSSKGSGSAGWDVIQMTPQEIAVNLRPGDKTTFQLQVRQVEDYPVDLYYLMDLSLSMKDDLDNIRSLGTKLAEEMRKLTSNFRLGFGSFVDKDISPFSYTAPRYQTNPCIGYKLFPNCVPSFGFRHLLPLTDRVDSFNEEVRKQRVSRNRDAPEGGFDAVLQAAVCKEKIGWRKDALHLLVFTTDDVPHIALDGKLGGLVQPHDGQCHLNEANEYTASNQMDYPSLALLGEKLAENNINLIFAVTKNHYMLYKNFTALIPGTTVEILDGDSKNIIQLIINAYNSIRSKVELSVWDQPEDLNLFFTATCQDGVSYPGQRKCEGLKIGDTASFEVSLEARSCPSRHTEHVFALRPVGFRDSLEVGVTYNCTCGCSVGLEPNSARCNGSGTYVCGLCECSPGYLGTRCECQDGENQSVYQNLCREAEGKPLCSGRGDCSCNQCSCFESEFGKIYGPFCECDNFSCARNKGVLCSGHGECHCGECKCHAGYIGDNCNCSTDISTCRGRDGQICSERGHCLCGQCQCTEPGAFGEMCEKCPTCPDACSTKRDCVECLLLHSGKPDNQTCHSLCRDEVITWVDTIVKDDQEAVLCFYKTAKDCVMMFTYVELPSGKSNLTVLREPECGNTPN
T3 sequence (P06756 31-992 limits assumed): as the sequence (P06756 31-992 limits assumed) above
T3 sequence (P05106 27-718 limits assumed): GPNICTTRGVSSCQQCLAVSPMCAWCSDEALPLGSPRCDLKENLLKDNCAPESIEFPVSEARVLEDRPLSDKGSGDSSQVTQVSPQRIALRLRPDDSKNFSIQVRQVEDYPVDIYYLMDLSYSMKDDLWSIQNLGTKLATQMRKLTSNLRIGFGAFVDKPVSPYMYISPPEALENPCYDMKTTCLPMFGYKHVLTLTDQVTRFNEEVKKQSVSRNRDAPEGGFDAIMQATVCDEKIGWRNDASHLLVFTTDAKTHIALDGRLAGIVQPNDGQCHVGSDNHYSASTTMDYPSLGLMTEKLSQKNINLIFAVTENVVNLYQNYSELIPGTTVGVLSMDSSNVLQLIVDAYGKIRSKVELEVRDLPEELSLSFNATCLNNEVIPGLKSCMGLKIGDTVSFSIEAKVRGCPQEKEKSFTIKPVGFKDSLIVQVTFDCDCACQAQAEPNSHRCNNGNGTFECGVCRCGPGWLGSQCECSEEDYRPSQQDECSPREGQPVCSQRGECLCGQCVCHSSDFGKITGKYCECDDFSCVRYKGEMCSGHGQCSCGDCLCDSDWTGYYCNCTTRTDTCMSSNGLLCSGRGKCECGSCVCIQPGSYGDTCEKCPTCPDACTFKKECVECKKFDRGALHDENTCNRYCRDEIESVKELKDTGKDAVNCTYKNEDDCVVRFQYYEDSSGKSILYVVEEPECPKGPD
T1 sequence (P06756 31-992 limits assumed): as the sequence (P06756 31-992 limits assumed) above
T1 sequence (P18564 22-707 limits assumed): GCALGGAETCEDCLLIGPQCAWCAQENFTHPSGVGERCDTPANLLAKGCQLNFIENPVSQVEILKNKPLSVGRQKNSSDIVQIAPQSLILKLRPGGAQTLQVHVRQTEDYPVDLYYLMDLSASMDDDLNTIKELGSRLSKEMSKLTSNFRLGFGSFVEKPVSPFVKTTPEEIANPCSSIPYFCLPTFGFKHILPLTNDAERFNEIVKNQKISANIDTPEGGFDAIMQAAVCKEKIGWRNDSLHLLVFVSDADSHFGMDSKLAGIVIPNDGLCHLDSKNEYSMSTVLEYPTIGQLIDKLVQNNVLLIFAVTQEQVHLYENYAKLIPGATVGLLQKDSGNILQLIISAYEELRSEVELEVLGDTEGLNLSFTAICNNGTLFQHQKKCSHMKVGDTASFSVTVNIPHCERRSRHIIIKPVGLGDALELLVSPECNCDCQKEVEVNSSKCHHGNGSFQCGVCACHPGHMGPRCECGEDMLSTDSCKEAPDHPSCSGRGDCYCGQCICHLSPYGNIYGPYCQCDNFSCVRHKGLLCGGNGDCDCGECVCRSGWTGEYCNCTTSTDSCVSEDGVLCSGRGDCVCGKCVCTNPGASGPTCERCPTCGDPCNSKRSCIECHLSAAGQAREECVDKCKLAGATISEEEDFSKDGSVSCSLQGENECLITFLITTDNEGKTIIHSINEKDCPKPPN

Turning to `COCCN(CCCCc1ccc2c(n1)NCCC2)CC[C@H](Nc1ncnc2ccccc12)C(=O)O` [PLN-74809], the IC50 was 5.7 nM on human integrin αvβ6; 3.4 nM at human integrin αvβ1; > 10000 nM at human integrin αvβ3; 15.7 nM in assay [1]; 39.3 nM in assay [3]; 6990 nM at human integrin αvβ5. Also, the IC50 in assay [4] is 23.5 nM. The “Fold selectivity (vs αvβ6)” value at human integrin αvβ6 (ligand binding) was 1×; at human integrin αvβ1 (ligand binding), 0.6×; at human integrin αvβ3 (ligand binding), > 1754×; on human integrin αvβ5 (ligand binding), 1226×. Moreover, the “reduction in Smad2 phosphorylation” value in assay [2] is “approximately 50%”.
